The values that follow come from ChEMBL document CHEMBL1154043, “Synthesis and structure-activity relationship of a novel series of heterocyclic sulfonamide gamma-secretase inhibitors” (Bioorg Med Chem, 2009).

The source made the active and inactive calls. No cut-off for these calls is given here.

Test system in the first assay: not listed separately
Briefly: Inhibition of gamma-secretase assessed as increase in beta-C-terminal fragment level after 24 hrs by double sandwich ELISA.
Take `CCC(CC)C(NS(=O)(=O)c1ccc(Cl)s1)c1ccnn1-c1ccc(OC)cc1` (stereo not given): the result was Active.

For the molecule `CCC(CC)C(NS(=O)(=O)c1ccc(Br)s1)c1ccnn1-c1ccccc1` (stereo not given), the result was Active.

As to `COc1ccc(Cn2nccc2C(NS(=O)(=O)c2ccc(Cl)s2)C(C)C)cc1` (stereo not given), the outcome was Active.

With `CCC(CC)C(NC(=O)c1ccc(Cl)cc1)c1ccnn1Cc1ccc(OC)cc1` (stereo not given), the result was Active.

Regarding `CCCCn1nccc1C(NS(=O)(=O)c1ccc(Cl)s1)C(CC)CC` (stereo not given), the outcome was Active.

Turning to `CCC(CC)C(NS(=O)(=O)c1ccc(Cl)s1)c1ccn[nH]1` (stereo not given), the outcome was Active.

`CC(C)C(NS(=O)(=O)c1ccc(Cl)s1)c1ccnn1-c1ccccc1` (stereo not given): the outcome was Active.

For the molecule `CCC(CC)C(NS(=O)(=O)c1cc(Cl)c(Cl)s1)c1ccnn1-c1ccccc1` (stereo not given), the result was Active.

`CCC(CC)C(NS(=O)(=O)c1ccc(Cl)s1)c1ccnn1-c1ccccc1` (stereo not given): the result was Active.

Consider `CC(C)[C@@H](NS(=O)(=O)c1ccc(Cl)s1)c1ccnn1-c1ccc(F)cc1`, for which the result was Active.

As to `CCC(CC)C(NS(=O)(=O)c1ccc(Cl)s1)c1ncnn1Cc1ccccc1` (stereo not given), the outcome was Active.

As to `CCC(CC)C(NS(=O)(=O)c1ccc(Cl)s1)c1ncnn1Cc1ccc(OC)cc1` (stereo not given), the result was Active.

Turning to `CCC(CC)C(NS(=O)(=O)c1ccc(Cl)s1)c1ncnn1Cc1ccc(C)cc1` (stereo not given), the result was Active.

Consider `CCC(CC)C(c1ccnn1-c1ccccc1)N(C)S(=O)(=O)c1ccc(Br)s1` (stereo not given), for which the result was Active.

Turning to `CCCC(NS(=O)(=O)c1ccc(Cl)s1)c1ccnn1Cc1ccc(OC)cc1` (stereo not given), the outcome was Active.

Take `CC(C)C(NS(=O)(=O)c1ccc(Cl)s1)c1ccnn1-c1ccc(F)cc1` (stereo not given): the outcome was Active.

Take `CC(C)C(NS(=O)(=O)c1ccc(Cl)s1)c1ncnn1Cc1ccccc1` (stereo not given): the outcome was Active.

As to `CCC(CC)C(NS(=O)(=O)c1ccc(Cl)c(Cl)c1)c1ccnn1-c1ccccc1` (stereo not given), the outcome was Active.

With `COc1ccc(Cn2nccc2C(C)NS(=O)(=O)c2ccc(Cl)s2)cc1` (stereo not given), the result was Active.

For `CCC(CC)C(NS(=O)(=O)c1ccc(Cl)s1)c1ncnn1Cc1ccc(OC(F)(F)F)cc1` (stereo not given), the result was Active.

Test system in the next assay: not listed separately
Briefly: Inhibition of gamma-secretase-mediated cleavage of human APP expressed in CHO cells assessed as reduction in amyloid beta40 production after 24 hrs by double sandwich ELISA. The assay is classed as cell-based.
Consider `CCC(CC)C(NS(=O)(=O)c1ccc(Cl)s1)c1ccnn1-c1ccc(OC)cc1` (stereo not given), for which the EC50 amounted to 1560 nM.

For `CCC(CC)C(NS(=O)(=O)c1ccc(Br)s1)c1ccnn1-c1ccccc1` (stereo not given), the EC50 is 1530 nM.

As to `COc1ccc(Cn2nccc2C(NS(=O)(=O)c2ccc(Cl)s2)C(C)C)cc1` (stereo not given), the EC50 was 410 nM.

Take `CCC(CC)C(NC(=O)c1ccc(Cl)cc1)c1ccnn1Cc1ccc(OC)cc1` (stereo not given): the EC50 turned out to be 42400 nM.

Turning to `CCCCn1nccc1C(NS(=O)(=O)c1ccc(Cl)s1)C(CC)CC` (stereo not given), the EC50 stood at 1000 nM.

Consider `CCC(CC)C(NS(=O)(=O)c1ccc(Cl)s1)c1ccn[nH]1` (stereo not given), for which the EC50 is 19500 nM.

With `CC(C)C(NS(=O)(=O)c1ccc(Cl)s1)c1ccnn1-c1ccccc1` (stereo not given), the EC50 worked out at 1120 nM.

Take `CCC(CC)C(NS(=O)(=O)c1cc(Cl)c(Cl)s1)c1ccnn1-c1ccccc1` (stereo not given): the concentration giving a half-maximal response (EC50) was 13400 nM.

For the molecule `CCC(CC)C(NS(=O)(=O)c1ccc(Cl)s1)c1ccnn1-c1ccccc1` (stereo not given), the EC50 turned out to be 1620 nM.

On to `CC(C)[C@@H](NS(=O)(=O)c1ccc(Cl)s1)c1ccnn1-c1ccc(F)cc1`, for which the EC50 is more than 15000 nM.

`CCC(CC)C(NS(=O)(=O)c1ccc(Cl)s1)c1ncnn1Cc1ccccc1` (stereo not given): the EC50 was determined as 1010 nM.

Turning to `CCC(CC)C(NS(=O)(=O)c1ccc(Cl)s1)c1ncnn1Cc1ccc(OC)cc1` (stereo not given), the EC50 was found to be 940 nM.

With `CCC(CC)C(NS(=O)(=O)c1ccc(Cl)s1)c1ncnn1Cc1ccc(C)cc1` (stereo not given), the EC50 worked out at 880 nM.

In the case of `CCC(CC)C(c1ccnn1-c1ccccc1)N(C)S(=O)(=O)c1ccc(Br)s1` (stereo not given), the EC50 is 65100 nM.

Turning to `CCCC(NS(=O)(=O)c1ccc(Cl)s1)c1ccnn1Cc1ccc(OC)cc1` (stereo not given), the EC50 is 930 nM.

As to `CC(C)C(NS(=O)(=O)c1ccc(Cl)s1)c1ccnn1-c1ccc(F)cc1` (stereo not given), the EC50 was 2760 nM.

Consider `CC(C)C(NS(=O)(=O)c1ccc(Cl)s1)c1ncnn1Cc1ccccc1` (stereo not given), for which the EC50 was 3360 nM.

Regarding `CCC(CC)C(NS(=O)(=O)c1ccc(Cl)c(Cl)c1)c1ccnn1-c1ccccc1` (stereo not given), the EC50 stood at 25500 nM.

Take `COc1ccc(Cn2nccc2C(C)NS(=O)(=O)c2ccc(Cl)s2)cc1` (stereo not given): the EC50 was 1200 nM.

Take `CCC(CC)C(NS(=O)(=O)c1ccc(Cl)s1)c1ncnn1Cc1ccc(OC(F)(F)F)cc1` (stereo not given): the half-maximal effective concentration (EC50) came to 990 nM.

In a further assay the test system is CHO. In words: Inhibition of gamma-secretase-mediated cleavage of human APP expressed in CHO cells assessed as reduction in amyloid beta42 production after 24 hrs by double sandwich ELISA. The format is cell-based.
With `CCC(CC)C(NS(=O)(=O)c1ccc(Cl)s1)c1ccnn1-c1ccc(OC)cc1` (stereo not given), the result was Active.

For `CCC(CC)C(NS(=O)(=O)c1ccc(Br)s1)c1ccnn1-c1ccccc1` (stereo not given), the result was Active.

With `COc1ccc(Cn2nccc2C(NS(=O)(=O)c2ccc(Cl)s2)C(C)C)cc1` (stereo not given), the outcome was Active.

With `CCC(CC)C(NC(=O)c1ccc(Cl)cc1)c1ccnn1Cc1ccc(OC)cc1` (stereo not given), the outcome was Active.

Regarding `CCCCn1nccc1C(NS(=O)(=O)c1ccc(Cl)s1)C(CC)CC` (stereo not given), the outcome was Active.

Regarding `CCC(CC)C(NS(=O)(=O)c1ccc(Cl)s1)c1ccn[nH]1` (stereo not given), the result was Active.

Take `CC(C)C(NS(=O)(=O)c1ccc(Cl)s1)c1ccnn1-c1ccccc1` (stereo not given): the result was Active.

For `CCC(CC)C(NS(=O)(=O)c1cc(Cl)c(Cl)s1)c1ccnn1-c1ccccc1` (stereo not given), the outcome was Active.

As for `CCC(CC)C(NS(=O)(=O)c1ccc(Cl)s1)c1ccnn1-c1ccccc1` (stereo not given), the result was Active.

On to `CC(C)[C@@H](NS(=O)(=O)c1ccc(Cl)s1)c1ccnn1-c1ccc(F)cc1`, for which the outcome was Active.

As for `CCC(CC)C(NS(=O)(=O)c1ccc(Cl)s1)c1ncnn1Cc1ccccc1` (stereo not given), the outcome was Active.

For the molecule `CCC(CC)C(NS(=O)(=O)c1ccc(Cl)s1)c1ncnn1Cc1ccc(OC)cc1` (stereo not given), the result was Active.

Regarding `CCC(CC)C(NS(=O)(=O)c1ccc(Cl)s1)c1ncnn1Cc1ccc(C)cc1` (stereo not given), the result was Active.

On to `CCC(CC)C(c1ccnn1-c1ccccc1)N(C)S(=O)(=O)c1ccc(Br)s1` (stereo not given), for which the outcome was Active.

Regarding `CCCC(NS(=O)(=O)c1ccc(Cl)s1)c1ccnn1Cc1ccc(OC)cc1` (stereo not given), the result was Active.

For the molecule `CC(C)C(NS(=O)(=O)c1ccc(Cl)s1)c1ccnn1-c1ccc(F)cc1` (stereo not given), the result was Active.

On to `CC(C)C(NS(=O)(=O)c1ccc(Cl)s1)c1ncnn1Cc1ccccc1` (stereo not given), for which the result was Active.

Turning to `CCC(CC)C(NS(=O)(=O)c1ccc(Cl)c(Cl)c1)c1ccnn1-c1ccccc1` (stereo not given), the outcome was Active.

For the molecule `COc1ccc(Cn2nccc2C(C)NS(=O)(=O)c2ccc(Cl)s2)cc1` (stereo not given), the result was Active.

As for `CCC(CC)C(NS(=O)(=O)c1ccc(Cl)s1)c1ncnn1Cc1ccc(OC(F)(F)F)cc1` (stereo not given), the outcome was Active.

Test system in another assay: not listed separately
In words: Inhibition of gamma-secretase assessed as effect on APP level after 24 hrs by double sandwich ELISA.
Take `CCC(CC)C(NS(=O)(=O)c1ccc(Cl)s1)c1ccnn1-c1ccc(OC)cc1` (stereo not given): the result was Active.

Regarding `CCC(CC)C(NS(=O)(=O)c1ccc(Br)s1)c1ccnn1-c1ccccc1` (stereo not given), the outcome was Active.

With `COc1ccc(Cn2nccc2C(NS(=O)(=O)c2ccc(Cl)s2)C(C)C)cc1` (stereo not given), the result was Active.

On to `CCC(CC)C(NC(=O)c1ccc(Cl)cc1)c1ccnn1Cc1ccc(OC)cc1` (stereo not given), for which the outcome was Active.

For the molecule `CCCCn1nccc1C(NS(=O)(=O)c1ccc(Cl)s1)C(CC)CC` (stereo not given), the result was Active.

Regarding `CCC(CC)C(NS(=O)(=O)c1ccc(Cl)s1)c1ccn[nH]1` (stereo not given), the outcome was Active.

As to `CC(C)C(NS(=O)(=O)c1ccc(Cl)s1)c1ccnn1-c1ccccc1` (stereo not given), the result was Active.

In the case of `CCC(CC)C(NS(=O)(=O)c1cc(Cl)c(Cl)s1)c1ccnn1-c1ccccc1` (stereo not given), the result was Active.

With `CCC(CC)C(NS(=O)(=O)c1ccc(Cl)s1)c1ccnn1-c1ccccc1` (stereo not given), the result was Active.

In the case of `CC(C)[C@@H](NS(=O)(=O)c1ccc(Cl)s1)c1ccnn1-c1ccc(F)cc1`, the outcome was Active.

As to `CCC(CC)C(NS(=O)(=O)c1ccc(Cl)s1)c1ncnn1Cc1ccccc1` (stereo not given), the outcome was Active.

Turning to `CCC(CC)C(NS(=O)(=O)c1ccc(Cl)s1)c1ncnn1Cc1ccc(OC)cc1` (stereo not given), the result was Active.

Turning to `CCC(CC)C(NS(=O)(=O)c1ccc(Cl)s1)c1ncnn1Cc1ccc(C)cc1` (stereo not given), the outcome was Active.

In the case of `CCC(CC)C(c1ccnn1-c1ccccc1)N(C)S(=O)(=O)c1ccc(Br)s1` (stereo not given), the outcome was Active.

Turning to `CCCC(NS(=O)(=O)c1ccc(Cl)s1)c1ccnn1Cc1ccc(OC)cc1` (stereo not given), the outcome was Active.

For `CC(C)C(NS(=O)(=O)c1ccc(Cl)s1)c1ccnn1-c1ccc(F)cc1` (stereo not given), the result was Active.

As for `CC(C)C(NS(=O)(=O)c1ccc(Cl)s1)c1ncnn1Cc1ccccc1` (stereo not given), the outcome was Active.

`CCC(CC)C(NS(=O)(=O)c1ccc(Cl)c(Cl)c1)c1ccnn1-c1ccccc1` (stereo not given): the result was Active.

Regarding `COc1ccc(Cn2nccc2C(C)NS(=O)(=O)c2ccc(Cl)s2)cc1` (stereo not given), the result was Active.

Turning to `CCC(CC)C(NS(=O)(=O)c1ccc(Cl)s1)c1ncnn1Cc1ccc(OC(F)(F)F)cc1` (stereo not given), the result was Active.
